Measurements: EP0385662B1, “Heterocycles with inhibitory activity of 5-lipoxygenase” (ZENECA LIMITED, priority 1989, dated 1990)

What was measured:
5-LO [1] = target: T1, 5-LO (Homo sapiens, UniProt P09917); assay: Test b): in vitro heparinised human blood challenged with calcium ionophore A23187, radioimmunoassay of LTB4; assay type: cell-based; conditions: A23187 challenge, read-out: IC50 against LTB4
T1 construct: incubating a test compound with heparinised human blood, prior to challenge with the calcium ionophore A23187; endogenous in cells; host or cells: leukocytes of heparinised human whole blood
T1 sequence (P09917 1-674): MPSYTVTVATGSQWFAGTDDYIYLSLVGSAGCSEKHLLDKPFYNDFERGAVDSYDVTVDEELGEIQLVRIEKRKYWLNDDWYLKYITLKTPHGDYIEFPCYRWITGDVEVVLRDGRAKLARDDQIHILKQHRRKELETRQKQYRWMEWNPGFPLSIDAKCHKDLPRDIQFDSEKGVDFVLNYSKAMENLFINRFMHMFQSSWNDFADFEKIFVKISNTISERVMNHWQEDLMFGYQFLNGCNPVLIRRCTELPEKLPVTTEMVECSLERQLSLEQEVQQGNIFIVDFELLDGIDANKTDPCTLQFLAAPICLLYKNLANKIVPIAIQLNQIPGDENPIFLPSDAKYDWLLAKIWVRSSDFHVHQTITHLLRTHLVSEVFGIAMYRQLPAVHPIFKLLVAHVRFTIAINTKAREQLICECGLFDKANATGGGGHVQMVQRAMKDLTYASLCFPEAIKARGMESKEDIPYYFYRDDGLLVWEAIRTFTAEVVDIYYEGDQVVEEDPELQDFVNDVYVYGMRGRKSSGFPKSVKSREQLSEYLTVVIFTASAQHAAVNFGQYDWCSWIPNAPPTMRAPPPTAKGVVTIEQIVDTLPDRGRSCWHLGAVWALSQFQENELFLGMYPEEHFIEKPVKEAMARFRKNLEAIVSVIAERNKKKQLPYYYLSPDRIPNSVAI
Description: (§1) As stated previously, the heterocycles of the formula I are inhibitors of the enzyme 5-LO. […] This test provides a measure of the intrinsic inhibitory properties against soluble 5-LO in an extracellular environment. • b) An in vitro assay system involving incubating a test compound with heparinised human blood, prior to challenge with the calcium ionophore A23187 and then indirectly measuring the inhibitory effects on 5-LO by assaying the amount of L TB4 using the specific radioimmunoassay described by Carey and Forder (F. Carey and R.A. Forder, Brit. […] The effects of a test compound on the enzyme cyclooxygenase (which is involved in the alternative metabolic pathway for arachidonic acid and gives rise to prostaglandins, thromboxanes and related metabolites) may be measured at the same time using the specific radioimmunoassay for thromboxane B2(TxB2) described by Carey and Forder (see above). […] It permits the selectivity of the inhibitory effect on 5-LO or cyclooxygenase to be assessed. • c) An ex vivo assay system, which is a variation of test b) above, involving administration of a test compound (usually orally as the suspension produced when a solution of the test compound in dimethylsulphoxide is added to carboxymethylcellulose), blood collection, heparinisation, challenge with A23187 and radioimmunoassay of L TB4 and TxB2. […]

cyclooxygenase = target: T2, cyclooxygenase (Homo sapiens, UniProt P23219); assay: Test b): in vitro heparinised human blood challenged with A23187, radioimmunoassay of thromboxane B2 (TxB2); assay type: cell-based; conditions: A23187 challenge, read-out: IC50 against TxB2
T2 construct: may be measured at the same time using the specific radioimmunoassay for thromboxane B2(TxB2); endogenous in cells; host or cells: blood cells (platelets) of heparinised human whole blood
Description: as §1

5-LO [2] = assay: Test c): ex vivo variation of test b), oral administration, blood collection, A23187 challenge, radioimmunoassay of LTB4; assay type: in vivo
Description: As stated previously, the heterocycles of the formula I are inhibitors of the enzyme 5-LO. […] This test provides a measure of the intrinsic inhibitory properties against soluble 5-LO in an extracellular environment. • b) An in vitro assay system involving incubating a test compound with heparinised human blood, prior to challenge with the calcium ionophore A23187 and then indirectly measuring the inhibitory effects on 5-LO by assaying the amount of L TB4 using the specific radioimmunoassay described by Carey and Forder (F. Carey and R.A. Forder, Brit. J. Pharmacol. 1985, 84, 34P) which involves the use of a protein-L TB4 conjugate produced using the procedure of Young et alia (Prostaglandins, 1983, 26(4), 605-613). The effects of a test compound on the enzyme cyclooxygenase (which is involved in the alternative metabolic pathway for arachidonic acid and gives rise to prostaglandins, thromboxanes and related metabolites) may be measured at the same time using the specific radioimmunoassay for thromboxane B2(TxB2) described by Carey and Forder (see above). This test provides an indication of the effects of a test compound against 5-LO and also cyclooxygenase in the presence of blood cells and proteins. It permits the selectivity of the inhibitory effect on 5-LO or cyclooxygenase to be assessed. • c) An ex vivo assay system, which is a variation of test b) above, involving administration of a test compound (usually orally as the suspension produced when a solution of the test compound in dimethylsulphoxide is added to carboxymethylcellulose), blood collection, heparinisation, challenge with A23187 and radioimmunoassay of L TB4 and TxB2. […]

T2 sequence (P23219 24-599): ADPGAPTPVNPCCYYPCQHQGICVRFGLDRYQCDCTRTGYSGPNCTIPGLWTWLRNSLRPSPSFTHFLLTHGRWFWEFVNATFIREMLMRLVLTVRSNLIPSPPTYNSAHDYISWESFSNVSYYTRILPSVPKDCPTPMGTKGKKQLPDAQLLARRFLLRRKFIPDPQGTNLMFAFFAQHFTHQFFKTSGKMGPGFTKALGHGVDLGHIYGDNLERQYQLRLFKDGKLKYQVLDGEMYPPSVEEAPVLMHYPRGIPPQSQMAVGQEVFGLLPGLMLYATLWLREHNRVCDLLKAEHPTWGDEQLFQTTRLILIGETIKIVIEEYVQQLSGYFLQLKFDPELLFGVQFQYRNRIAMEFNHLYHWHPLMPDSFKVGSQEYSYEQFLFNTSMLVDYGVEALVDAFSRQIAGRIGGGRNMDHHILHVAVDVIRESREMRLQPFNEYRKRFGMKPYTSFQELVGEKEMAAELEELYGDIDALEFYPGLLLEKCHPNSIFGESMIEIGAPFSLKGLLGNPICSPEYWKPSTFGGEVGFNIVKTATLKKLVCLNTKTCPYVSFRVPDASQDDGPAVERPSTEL

Compound	IC50 (5-LO [1])	IC50 (cyclooxygenase)	oral ED50 against LTB4 (5-LO [2])
COC1(c2cccc(OCC#Cc3ccccn3)c2)CCOCC1 [4-methoxy-4-[3-(3-(2-pyridyl)prop-2-yn-1-yloxy)phenyl]-tetrahydropyran]	2 µM	> 40 µM	< 100 mg/kg
COC1(c2cc(F)cc(OCc3ccc4ncccc4c3)c2)CCOCC1 [4-[5-fluoro-3-(6-quinolylmethoxy)phenyl]-4-methoxytetrahydropyran]	0.1 µM	–	8 mg/kg
COC1(c2cccc(OCc3ccc4c(ccc(=O)n4C)c3)c2)CCOCC1 [4-[3-(1,2-dihydro-1-methyl-2-oxoquinolin-6-ylmethoxy)phenyl]-4-methoxytetrahydropyran]	–	–	3 mg/kg
